According to PMC6801510, “A2A Receptor Homodimer-Disrupting Sequence Efficiently Delivered by a Protease-Resistant, Cyclic CPP Vector” (International Journal of Molecular Sciences, 2019):
Ends that are not written are not given here.

Experiments:
[1] = system: trypsin; test: Trypsin digestion followed by HPLC; assay type: in vitro ADME; conditions: trypsin (isolated protease), after 30 min, peptide:trypsin 100:1, peptide 1 µg/µL, 50 mM ammonium bicarbonate buffer pH 8.2, 37 °C, reverse-phase HPLC-MS read-out, assays in duplicate, read-out: Decrease in the area of the starting HPLC peak on trypsin treatment
Source text: It was of particular interest to ascertain how the internal cyclization and D-amino acid modifications influenced the lifespan of the partially cyclic structures. To this end, peptides 1 and 2, both with a TM5 disruptor sequence fused to a linear or a cyclic CPP motif, respectively, were inspected by high-performance liquid chromatography (HPLC) upon trypsin treatment. Analysis confirmed the vulnerability of fully linear 1 (Figure 3), with a 90% decrease in the area of the starting peak after only 30 min (Figure 4), and the appearance of new peaks identified by mass spectrometry (MS) (Table 2).
A 1000 µg/1000 µL trypsin solution (Thermo Fisher Scientific, Cornellà de Llobregat, Spain) […]) was prepared by suspending the lyophilized enzyme in 50 mM ammonium bicarbonate buffer, pH 8.2. Peptides dissolved in the same buffer (1 µg/µL) were incubated with trypsin (peptide:trypsin ratio = 100:1) for 24 h at 37 °C. Samples were collected at various time points and digestion was stopped by addition of 20% (v/v) of 0.5% formic acid in H2O. Samples were stored at −20 °C until analyzed by reverse-phase HPLC-MS.

[2] = target: T1, A2AR homodimer (A2A-cYFP / A2A-nYFP) in HEK-293T cells (Homo sapiens, UniProt P29274); test: Bimolecular fluorescence complementation (BiFC) assay of A2A receptor homodimer disruption; assay type: cell-based; conditions: 4 h incubation with peptide; for Effect on the control BiFC fluorescence (A2AR dimerization): HEK-293T cells, A2A-cYFP / A2A-nYFP, versus fluorescence of the dimer in the absence of peptides
T1 construct: expressed in transfected cells; host or cells: HEK-293T
T1 sequence (P29274 whole entry): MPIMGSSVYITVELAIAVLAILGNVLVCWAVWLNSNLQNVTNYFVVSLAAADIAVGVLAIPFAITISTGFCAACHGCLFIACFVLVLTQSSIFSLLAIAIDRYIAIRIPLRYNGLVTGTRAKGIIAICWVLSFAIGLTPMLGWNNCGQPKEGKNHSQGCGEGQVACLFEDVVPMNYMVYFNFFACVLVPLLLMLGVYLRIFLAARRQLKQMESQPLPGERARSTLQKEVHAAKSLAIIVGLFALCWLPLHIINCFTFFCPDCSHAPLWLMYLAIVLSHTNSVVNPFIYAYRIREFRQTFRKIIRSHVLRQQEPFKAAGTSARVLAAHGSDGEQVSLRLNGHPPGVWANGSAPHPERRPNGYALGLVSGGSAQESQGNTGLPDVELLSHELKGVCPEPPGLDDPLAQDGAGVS
Method: For bimolecular fluorescence complementation (BiFC) assays: cells were transfected using cDNAs coding for two versions of the receptor. As described elsewhere [18, 27], two cDNAs were prepared: each encoding the receptor fused to one of the two halves of the super yellow fluorescent protein (sYFP). […] Each half of the fluorescent protein is unable, by itself, to emit fluorescence, which is only feasible after complementation of the two halves of the sYFP.
To address homodimer disruption, bimolecular fluorescence complementation assays were performed using HEK-293T cells transfected with equal amounts of cDNAs (0.75 µg cDNA each) for A2A-cYFP and A2A-nYFP fusion proteins (intramural production, see [17, 18, 26, 28]). […] Fluorescence was recorded in a Fluostar Optima fluorimeter (BMG Labtechnologies, Offenburg, Germany). […] Values of fluorescence obtained in the absence or presence of peptides are given as mean ± standard error of the mean (SEM) of 16 independent experiments in duplicates.

[3] = target: T2, adenosine A2A receptor, fused to one half of super yellow fluorescent protein (A2A-cYFP or A2A-nYFP), BiFC … (UniProt P29274 1-412); test: split reporter (BiFC, NanoBiT); competition: HEK-293T cells expressing A2A-cYFP and A2A-nYFP treated with TM5 peptides 1 or 2 for 4 h before the complementation assay, in supplemented DMEM; dose-dependent loss of YFP fluorescence; conditions: one partner purified
T2 construct: source: HEK-293T, transfected, in living cells
T2 sequence (P29274 whole entry, the tested form may be a part): as the sequence (P29274 whole entry) above

Molecule	metabolised at 0.5 h, 1 µg/µL [1] [%]	Effect on the control BiFC fluorescence (A2AR dimerization) [2]	IC50 ([2]; HEK-293T cells transfected with A2A-cYFP and A2A-nYFP, 48 h post-transfection, supplemented DMEM, Figure 2B, mean +/- SD, n = 12 in duplicates, read-out: IC50 for reduction of BiFC (sYFP complementation) fluorescence of the A2AR homodimer) [nM]	IC50 [3] [nM]
MNYMVYFNFFACVLVPLLLMLGVYLYGRKKRRQRRR-NH2 [Peptide 1]	90	affected the fluorescence of the control in a dose-dependent manner		
MNYMVYFNFFACVLVPLLLMLGVYL[KrRrGrKkRrE]-amide (sidechain bridge or staple) [Peptide 2, Cyclic Tat-like TM5: A2AR TM5 fused to cyclic KrRrGrKkRrE motif, N-terminus acetylated]		affected the fluorescence of the control in a dose-dependent manner	350	
MNYMVYFNFFACVLVPLLLMLGVYLYGRKKRRQRRR-NH2 (TM5 helical domain of the adenosine A2A receptor (A2AR); also called linear TM5-Tat; linear peptide 1; source: synthetic peptide (Fmoc solid-phase synthesis, purified by preparative HPLC)) [Peptide 1, linear Tat-based TM5]				520
MNYMVYFNFFACVLVPLLLMLGVYLKRRRGRKKRRE (also: cyclic (mode of cyclisation not given here), also called TM5-cyclic Tat-like; cyclic version 2; source: synthetic peptide (Fmoc solid-phase synthesis, on-resin cyclization, purified by preparative HPLC)) [Peptide 2, cyclic Tat-like TM5]				350
